Earlier results as cited in patent publication US20250277001A1, “PEPTIDE DERIVATIVES AND RELATED USES AS OREXIN AGONISTS” (CENTESSA PHARMACEUTICALS (UK) LIMITED, priority 2022, published 2025).
Where two headings read alike, the source gives them in different places.

Assays:
individuals with NT1 = details: initial clinical studies; cited from earlier work
mice = details: cited from earlier work

COC(=O)N1CCC[C@H](NS(C)(=O)=O)[C@@H]1CO[C@H]1CC[C@@H](c2ccccc2)CC1 [TAK-925]
cataplexy (individuals with NT1): trends for decreasing cataplexy | wakefulness (individuals with NT1): substantial levels of increased wakefulness | wakefulness (mice; subcutaneous, OX2R-knockout mice): not | wakefulness (mice; subcutaneous, WT mice): modestly increased

COc1ccc(-c2cccc(C(=O)N(C)C)c2)cc1S(=O)(=O)Nc1cccc(NCCNC(=O)c2ccccc2N(C)C)c1 [YNT-185]
sleep-onset REM periods and cataplexy-like events (mice; NT1 mouse model): decreases | wakefulness (mice; intraperitoneally or ICV, wild type (WT) and orexin ligand-deficient mice): modestly increases
